This passage reports IC50 results from patent US20250223284A1, “REVERSIBLE DPP1 INHIBITORS AND USES THEREOF” (Insmed Incorporated, priority 2023, published 2025).

For one assay, the target named is human DPP1 enzyme (Homo sapiens (Human), UniProt P53634). Nature of the assay: Human DPP1 Enzyme IC50 Assay. The assay is classed as biochemical. Particulars: recombinant human DPP1 activated with cathepsin L, H-Gly-Arg-AMC substrate, 10 min pre-incubation at 37° C., MES pH 6.0. As to the method:
Recombinant human DPP1 enzyme (R&D Systems; Minneapolis, MN) was first proteolytically processed into its mature form using recombinant human cathepsin L (R&D Systems) in a buffer consisting of 20 mM citric acid pH 4.5, 150 mM NaCl, 1 mM EDTA and 10 mM DTT. Test articles were applied to activated human DPP1 enzyme in Assay Buffer (25 mM MES pH 6.0, 50 mM NaCl, 5 mM DTT) in a total reaction volume of 125 μL. 25 μL of compound in Assay Buffer plus 5% DMSO was first added to 50 μL of activated human DPP1 enzyme at a concentration of 1 ng/μL and allowed to pre-incubate for 10 minutes at 37° C. after which 50 μL of 1000 μM H-Gly-Arg-AMC substrate (Bachem; St. Torrance, CA) was added, giving final substrate concentration of 400 µM and a final DMSO concentration of 1%. Substrate cleavage was measured for 90 minutes at 37° C., with fluorescence at Excitation/Emission 350/450 nm measured every 5 minutes. DPP1 concentration was interpolated based on its activity relative to a standard curve of activated human recombinant DPP1 enzyme. IC50 values for each compound were calculated via the XLFit (IDBS Version 5.3.1.3) Add-On to Microsoft Excel using the four parameter fit equation y={A+[(B−A)]/[1+((C/x)^D)]}, which appears as equation number 205 (4 Parameter Logistic Model or Sigmoidal Dose-Response Model) in XLFit. Default constraints were used for each Parameter. IC50 was defined as the compound concentration at which 50% of enzyme activity was inhibited when compared to the no-compound control.

The target of a further assay is mouse DPP1 enzyme (Mus musculus (Mouse), UniProt P97821). Kind of assay: Mouse DPP1 Enzyme IC50 Assay. It counts as biochemical. The conditions noted are these: active mouse DPP1 enzyme, H-Gly-Arg-AMC substrate, 10 min pre-incubation at 37° C., MES pH 5.5. As to the method: Test articles were applied to active mouse DPP1 enzyme (R&D Systems; Minneapolis, MN) in Assay Buffer (50 mM MES pH 5.5, 50 mM NaCl, 5 mM DTT) in a total reaction volume of 125 μL. 25 μL of compound in Assay Buffer plus 5% DMSO was first added to 50 μL of active mouse DPP1 enzyme at a concentration of 62.5 pg/μL and allowed to pre-incubate for 10 minutes at 37° C. after which 50 μL of 1000 μM H-Gly-Arg-AMC substrate (Bachem; St. Torrance, CA) was added, giving final substrate concentration of 400 µM and a final DMSO concentration of 1%. Substrate cleavage was measured for 90 minutes at 37° C., with fluorescence at Excitation/Emission 350/450 nm measured every 5 minutes. DPP1 concentration was interpolated based on its activity relative to a standard curve of recombinant active mouse DPP1 enzyme. IC50 values for each compound were calculated via the XLFit (IDBS Version 5.3.1.3) Add-On to Microsoft Excel using the four parameter fit equation y=(A+((B−A)/(1+ ((C/x)^D)))), which appears as equation number 205 (4 Parameter Logistic Model or Sigmoidal Dose-Response Model) in XLFit. Default constraints were used for each Parameter. IC50 was defined as the compound concentration at which 50% of enzyme activity was inhibited when compared to the no-compound control.
Chain of mouse DPP1 enzyme (P97821 25-134): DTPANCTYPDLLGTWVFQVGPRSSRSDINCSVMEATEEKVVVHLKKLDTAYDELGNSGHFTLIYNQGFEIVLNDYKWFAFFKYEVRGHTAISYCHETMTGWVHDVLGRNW
Chain of mouse DPP1 enzyme (P97821 231-393): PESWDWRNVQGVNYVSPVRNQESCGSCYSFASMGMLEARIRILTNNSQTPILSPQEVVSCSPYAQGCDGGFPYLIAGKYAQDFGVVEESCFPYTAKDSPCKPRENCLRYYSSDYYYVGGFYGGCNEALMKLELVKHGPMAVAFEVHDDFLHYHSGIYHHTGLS
Chain of mouse DPP1 enzyme (P97821 394-462): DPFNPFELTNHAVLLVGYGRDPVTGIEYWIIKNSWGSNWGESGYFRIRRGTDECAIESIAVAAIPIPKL

Chain of human DPP1 enzyme (P53634 25-134): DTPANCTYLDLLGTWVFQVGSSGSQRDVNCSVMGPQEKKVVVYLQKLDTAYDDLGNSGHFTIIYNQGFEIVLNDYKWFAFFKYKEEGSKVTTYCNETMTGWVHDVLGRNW
Chain of human DPP1 enzyme (P53634 231-394): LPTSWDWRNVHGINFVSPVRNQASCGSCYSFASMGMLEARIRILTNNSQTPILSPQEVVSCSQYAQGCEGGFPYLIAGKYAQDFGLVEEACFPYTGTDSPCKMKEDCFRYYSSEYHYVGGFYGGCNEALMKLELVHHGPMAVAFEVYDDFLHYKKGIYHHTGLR
Chain of human DPP1 enzyme (P53634 395-463): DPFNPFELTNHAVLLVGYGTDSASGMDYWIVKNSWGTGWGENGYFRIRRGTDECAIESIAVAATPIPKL

For the compound `Cn1c(=O)oc2ccc(-c3ccc(C[C@@H](C#N)NC(=O)[C@@H]4CNC[C@@](C)(O)CO4)cc3)cc21` (relative stereo) [Compound 2-A, (2S,6R*)—N-[(1S)-1-cyano-2-[4-(3-methyl-2-oxo-2,3-dihydro-1,3-benzoxazol-5-yl)phenyl]ethyl]-6-hydroxy-6-methyl-1,4-oxazepane-2-carboxamide], the results for the IC50 on human DPP1 enzyme and on mouse DPP1 enzyme were 39.6 nM and 51.7 nM, respectively.
With `CO[C@@]1(C)CNC[C@@H](C(=O)N[C@H](C#N)Cc2ccc(-c3ccc4oc(=O)n(C)c4c3)cc2)OC1` (relative stereo) [Compound 3-A, (2S,6S*)—N-[(1S)-1-cyano-2-[4-(3-methyl-2-oxo-2,3-dihydro-1,3-benzoxazol-5-yl)phenyl]ethyl]-6-methoxy-6-methyl-1,4-oxazepane-2-carboxamide], the IC50 (commonly the point on the concentration scale where inhibition reaches its midpoint) on human DPP1 enzyme stood at 145 nM; against mouse DPP1 enzyme, 130 nM.
On to `CO[C@]1(C)CNC[C@@H](C(=O)N[C@H](C#N)Cc2ccc(-c3ccc4oc(=O)n(C)c4c3)cc2)OC1` (relative stereo) [Compound 3-B, (2S,6R*)—N-[(1S)-1-cyano-2-[4-(3-methyl-2-oxo-2,3-dihydro-1,3-benzoxazol-5-yl)phenyl]ethyl]-6-methoxy-6-methyl-1,4-oxazepane-2-carboxamide], for which the results for the IC50 at human DPP1 enzyme and at mouse DPP1 enzyme were 206 nM and 251 nM, respectively.
